Results on 53 molecules are retold here after ChEMBL document CHEMBL1145190, “CoMFA and CoMSIA analyses of Pneumocystis carinii dihydrofolate reductase, Toxoplasma gondii dihydrofolate reductase, and rat liver dihydrofolate reductase” (J Med Chem, 2005).

Assay [1] has as its target T1, Dihydrofolate reductase (Pneumocystis carinii, UniProt P16184).
T1 sequence (P16184 whole entry): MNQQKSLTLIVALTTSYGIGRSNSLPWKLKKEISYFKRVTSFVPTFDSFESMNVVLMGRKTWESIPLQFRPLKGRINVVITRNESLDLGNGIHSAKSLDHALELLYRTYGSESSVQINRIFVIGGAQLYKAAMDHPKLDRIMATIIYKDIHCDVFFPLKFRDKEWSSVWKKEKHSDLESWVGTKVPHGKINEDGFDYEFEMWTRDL
The assay can be described thus: (§1) Inhibition of Pneumocystis carinii dihydrofolate reductase.

The target in assay [2] is T2, Dihydrofolate reductase (Rattus norvegicus, UniProt Q920D2).
T2 sequence (Q920D2 whole entry): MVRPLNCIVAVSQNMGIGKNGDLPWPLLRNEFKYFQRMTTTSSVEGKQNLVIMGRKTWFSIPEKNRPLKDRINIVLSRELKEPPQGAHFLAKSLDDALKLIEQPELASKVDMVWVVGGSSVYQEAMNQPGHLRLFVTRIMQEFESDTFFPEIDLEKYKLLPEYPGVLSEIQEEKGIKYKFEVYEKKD
Briefly: (§2) Inhibition of rat liver dihydrofolate reductase.

For assay [3], the target named is T2, Dihydrofolate reductase. Described as §2. This is another data set of the same source.
For assay [4], the target named is T3, Bifunctional dihydrofolate reductase-thymidylate synthase (Toxoplasma gondii, UniProt Q07422).
T3 sequence (Q07422 whole entry): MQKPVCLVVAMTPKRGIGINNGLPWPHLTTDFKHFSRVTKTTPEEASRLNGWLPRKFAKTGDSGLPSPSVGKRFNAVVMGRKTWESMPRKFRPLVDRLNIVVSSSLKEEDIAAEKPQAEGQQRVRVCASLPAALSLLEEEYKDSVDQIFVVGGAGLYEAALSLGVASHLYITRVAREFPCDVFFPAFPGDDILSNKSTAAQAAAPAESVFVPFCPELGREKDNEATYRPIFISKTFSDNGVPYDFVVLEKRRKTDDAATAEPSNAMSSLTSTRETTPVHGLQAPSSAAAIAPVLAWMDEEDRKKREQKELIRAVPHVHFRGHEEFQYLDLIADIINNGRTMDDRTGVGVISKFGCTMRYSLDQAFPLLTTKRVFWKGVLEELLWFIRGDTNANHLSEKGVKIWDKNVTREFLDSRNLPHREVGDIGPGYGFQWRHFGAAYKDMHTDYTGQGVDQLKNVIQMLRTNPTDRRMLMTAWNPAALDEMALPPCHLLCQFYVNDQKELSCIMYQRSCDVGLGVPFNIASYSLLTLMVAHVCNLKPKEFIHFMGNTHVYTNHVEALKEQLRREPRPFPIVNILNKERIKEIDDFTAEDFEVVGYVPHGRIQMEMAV
The assay can be described thus: (§3) Inhibition of Toxoplasma gondii dihydrofolate reductase.

Assay [5] deals with T1, Dihydrofolate reductase. The assay is described as §1. The source holds these as a separate data set.
The target of assay [6] is T3, Bifunctional dihydrofolate reductase-thymidylate synthase. The assay is described as §3. This is another data set of the same source.

“And” between values parts separate entries of the source, which are not always exact repeats. Identical values can stand only once.

As to `COc1cc(CN(C)c2ccc3nc(N)nc(N)c3c2)cc(OC)c1`, in assay [1], inhibition was half-maximal at 23.3 nM (IC50).

`CN(CC1CCc2nc(N)nc(N)c2C1)c1cccc2ccccc12` (stereo unspecified): the half-maximal inhibitory concentration (IC50) (in general, the concentration that gives 50% inhibition) in assay [2] is 160 nM.

In assay [3], `COc1cc(N(C)CC2CCc3nc(N)nc(N)c3C2)cc(OC)c1OC` (stereo unspecified) returned an IC50 of 38 nM.

`COc1cc(OC)c(CN(C)c2ccc3nc(N)nc(N)c3c2)c(OC)c1`: the concentration for half-maximal inhibition (IC50) was 950 nM in assay [4]; 116000 nM in assay [5]; 22700 nM in assay [2]; 950 nM in assay [6]; 116000 nM in assay [1]; 22700 nM in assay [3].

For the molecule `COc1cc(NNCc2cnc3nc(N)nc(N)c3c2C)c(-n2cccc2)cc1OC`, the IC50 in assay [4] was 600 nM; in assay [2] it was 3500 nM; in assay [6] it was 600 nM; in assay [3] it was 3500 nM.

With `COc1ccc(-c2ccccc2)cc1NNCc1cnc2nc(N)nc(N)c2c1C`, the IC50 in assay [4] was 68 nM; in assay [5], 64 nM; in assay [2], 440 nM; in assay [6] it was 68.1 nM; in assay [1] it was 64 nM; in assay [3] it was 440 nM.

Regarding `Nc1nc(N)c2c(n1)CCC(CNc1cccc(Cl)c1)C2` (stereo unspecified), the IC50 was 78 nM in assay [4]; 940 nM in assay [5]; 128 nM in assay [2]; 78 nM in assay [6]; 940 nM in assay [1]; 128 nM in assay [3].

`Cc1c(C)c(-n2cccc2)c(C)c(C)c1NNCc1cnc2nc(N)nc(N)c2c1C`: the IC50 in assay [4] was 75 nM; in assay [5], 620 nM; in assay [2], 170 nM; in assay [6], 75 nM; in assay [1], 620 nM; in assay [3], 170 nM.

Consider `Nc1nc(N)c2nc(CSc3ccc4ccccc4c3)ccc2n1`, for which the IC50 in assay [5] and in assay [1] was 380 nM in each case.

As to `Nc1nc(N)c2nc(CNc3cc(Cl)ccc3Cl)ccc2n1`, the IC50 in assay [5] and in assay [1] was 1600 nM throughout.

Consider `Nc1nc(N)c2nc(CNc3ccc(Cl)c(Cl)c3)ccc2n1`, for which the IC50 in assay [5] and in assay [1] was 410 nM each time.

For the molecule `Nc1nc(N)c2nc(CNc3ccc(Cl)cc3Cl)ccc2n1`, the IC50 in assay [5] and in assay [1] was 730 nM throughout.

On to `COc1ccc(NCc2ccc3nc(N)nc(N)c3n2)c(OC)c1`, for which the IC50 in assay [5] and in assay [1] was 5500 nM in each case.

With `Nc1nc(N)c2nc(CNc3cccc4ccccc34)ccc2n1`, the IC50 in assay [5] and in assay [1] was 230 nM in each case.

As to `COc1ccc(N(C)Cc2ccc3nc(N)nc(N)c3n2)c(OC)c1`, the IC50 in assay [5] and in assay [1] was 160 nM throughout.

In the case of `CN(Cc1ccc2nc(N)nc(N)c2n1)c1ccc(Cl)c(Cl)c1`, the IC50 in assay [5] and in assay [1] was 38 nM each time.

Take `Nc1nc(N)c2nc(CSc3ccccc3)ccc2n1`: the IC50 in assay [5] and in assay [1] was 2000 nM each time.

With `COc1ccc(OC)c(N(C)Cc2ccc3nc(N)nc(N)c3n2)c1`, the IC50 in assay [4] was 250 nM; in assay [5], 210 nM; in assay [1] it was 210 nM.

For `COc1cc(C(C)Nc2cnc3nc(N)nc(N)c3c2)cc(OC)c1OC` (stereo unspecified), the IC50 in assay [6] was 182 nM.

The molecule `COc1cc(OC)c(CNc2cnc3nc(N)nc(N)c3c2)c(OC)c1` came in with an IC50 in assay [3] of 1200 nM.

For the molecule `COc1ccc(CNc2cnc3nc(N)nc(N)c3c2)c(OC)c1OC`, the IC50 in assay [4] is 350 nM; in assay [5], 14100 nM; in assay [2] it was 3300 nM; in assay [6] it was 350 nM; in assay [1] it was 14100 nM; in assay [3] it was 3300 nM.

`COc1cc(CN(C)c2cnc3nc(N)nc(N)c3c2)cc(OC)c1`: the IC50 in assay [4] and in assay [6] was 31 nM throughout.

Take `CN(Cc1cccc2ccccc12)c1ccc2nc(N)nc(N)c2c1`: the IC50 in assay [5] was 17 nM; in assay [2], 17 nM; in assay [6], 21 nM; in assay [1], 17 nM; in assay [3], 17 nM.

For the molecule `COc1ccc(N(C)Cc2ccc3nc(N)nc(N)c3n2)cc1`, the IC50 in assay [5] and in assay [1] was 250 nM in each case.

Consider `Nc1nc(N)c2nc(CNc3ccc4ccccc4c3)ccc2n1`, for which the IC50 in assay [5] and in assay [1] was 1600 nM each time.

`COc1cc(CCC2CNc3nc(N)nc(N)c3C2)cc(OC)c1OC` (stereo unspecified): the concentration for half-maximal inhibition (IC50) is 1100 nM in assay [4]; 7700 nM in assay [5]; 2100 nM in assay [2]; 1100 nM in assay [6]; 7710 nM in assay [1]; 2100 nM in assay [3].

As for `CN(Cc1ccc2nc(N)nc(N)c2n1)c1c(Cl)cccc1Cl`, the IC50 in assay [5] and in assay [1] was 170 nM throughout.

Consider `COc1cc(N(C)Cc2cnc3nc(N)nc(N)c3c2C)cc(OC)c1OC`, for which the IC50 in assay [2] is 7.21 nM.

With `CCN(Cc1cnc2nc(N)nc(N)c2c1C)c1cc(OC)c(OC)c(OC)c1`, the 50% inhibitory concentration (IC50) in assay [5] and in assay [1] was 497 nM throughout.

As to `COc1cc(N(C)Cc2ccc3nc(N)nc(N)c3n2)cc(OC)c1OC`, the IC50 was 44 nM in assay [4]; 120 nM in assay [5]; 52 nM in assay [2]; 44 nM in assay [6]; 120 nM in assay [1]; 52 nM in assay [3].

Take `CN(Cc1ccc2nc(N)nc(N)c2n1)c1cc(Cl)c(Cl)c(Cl)c1`: the IC50 in assay [5] and in assay [1] was 250 nM throughout.

On to `COc1ccc(NCc2ccc3nc(N)nc(N)c3n2)cc1`, for which the results for the 50% inhibitory concentration (IC50) in assay [5] and in assay [1] were 850 nM and 849 nM, respectively.

For the molecule `COc1cccc(NCc2ccc3nc(N)nc(N)c3n2)c1`, the IC50 in assay [5] and in assay [1] was 1700 nM throughout.

With `COc1ccc(OC)c(NCc2ccc3nc(N)nc(N)c3n2)c1`, the 50% inhibitory concentration (IC50) in assay [5] and in assay [1] was 4400 nM throughout.

For `Nc1nc(N)c2nc(CNc3ccccc3Cl)ccc2n1`, the half-maximal inhibitory concentration (IC50) in assay [5] and in assay [1] was 530 nM throughout.

On to `CN(Cc1ccc2nc(N)nc(N)c2n1)c1ccccc1Cl`, for which the IC50 in assay [5] and in assay [1] was 210 nM in each case.

`Nc1nc(N)c2nc(CNc3cc(Cl)c(Cl)c(Cl)c3)ccc2n1`: the IC50 in assay [5] is 660 nM; in assay [1], 661 nM.

On to `COc1ccccc1N(C)Cc1ccc2nc(N)nc(N)c2n1`, for which the IC50 in assay [5] and in assay [1] was 510 nM in each case.

For `COc1ccccc1NCc1ccc2nc(N)nc(N)c2n1`, the IC50 in assay [5] and in assay [1] was 2700 nM throughout.

`CN(Cc1ccc2nc(N)nc(N)c2n1)c1cccc2ccccc12`: the half-inhibitory concentration (IC50) in assay [5] and in assay [1] was 40 nM in each case.

Turning to `Nc1nc(N)c2nc(CNc3cccc(Cl)c3)ccc2n1`, the IC50 in assay [5] and in assay [1] was 2000 nM in each case.

In the case of `CN(Cc1ccc2nc(N)nc(N)c2n1)c1ccc(Cl)cc1Cl`, the IC50 in assay [5] and in assay [1] was 500 nM throughout.

As to `Nc1nc(N)c2nc(CNc3ccccc3)ccc2n1`, the IC50 in assay [5] and in assay [1] was 1700 nM in each case.

In the case of `COc1cccc(N(C)Cc2ccc3nc(N)nc(N)c3n2)c1`, the IC50 in assay [5] and in assay [1] was 97 nM throughout.

For `Nc1nc(N)c2nc(CNc3c(Cl)cccc3Cl)ccc2n1`, the IC50 in assay [5] and in assay [1] was 1000 nM throughout.

With `CN(Cc1ccc2nc(N)nc(N)c2n1)c1ccccc1`, the IC50 in assay [4] is 0.84 nM; in assay [5], 290 nM; in assay [1] it was 290 nM.

With `COc1cc(NCc2ccc3nc(N)nc(N)c3n2)cc(OC)c1OC`, the IC50 in assay [5] and in assay [1] was 2000 nM in each case.

`CN(Cc1ccc2nc(N)nc(N)c2n1)c1cc(Cl)ccc1Cl`: the IC50 in assay [5] and in assay [1] was 150 nM in each case.

Take `Nc1nc(N)c2nc(CSc3cccc4ccccc34)ccc2n1`: the results for the IC50 in assay [5], in assay [2] and in assay [1] were 470 nM, 252 nM and 470 nM, respectively.

In the case of `CN(Cc1ccc2nc(N)nc(N)c2n1)c1ccc2ccccc2c1`, the IC50 in assay [5] and in assay [1] was 52 nM in each case.

In the case of `COc1ccc(NCc2ccc3nc(N)nc(N)c3n2)cc1OC`, the IC50 in assay [5] and in assay [1] was 900 nM each time.

On to `COc1ccc(N(C)Cc2ccc3nc(N)nc(N)c3n2)cc1OC`, for which the IC50 in assay [5] is 91 nM; in assay [2] it was 270 nM; in assay [1], 91 nM.

Consider `COc1cc(-n2ccc3c4c(N)nc(N)nc4nc(=O)c-3c2)cc(OC)c1OC`, for which the IC50 in assay [4] was 240 nM and 52 nM; in assay [5], 4280 nM; in assay [2], 1120 nM; in assay [6], 240 nM and 52 nM; in assay [1] it was 4280 nM; in assay [3] it was 1120 nM.
